Here are results for 1 substance from patent publication US20220226357A1, “METHODS FOR TREATING NEURODEGENERATIVE DISORDERS” (THOMAS JEFFERSON UNIVERSITY, priority 2019, published 2022).

Entries after “also recorded” stand apart in the source; their conditions may differ.

In test [1] the test system is AAV-A53T α-synuclein rat model. Description: Immunohistochemistry of Ser129-phosphorylated α-synuclein in the SN. Format: in vivo. The note with it: delayed start GM1; 8 weeks after AAV-A53T; not quantified.
Test [2] deals with differentiated SH-SY5Y cells. The test is described as follows: Uptake of GFP-α-Syn from conditioned medium. Format: cell-based. Conditions: 100 μM GM1, 24 hrs, conditioned medium of MN9D cells expressing GFP-tagged human WT α-Syn. As for the experimental part:
It has recently become appreciated that cell-to-cell transfer of α-Syn may be an important factor in the progression of synucelinopathies. Cell-to-cell transfer of α-Syn can occur as free α-Syn or as α-Sy-containing exosomes. Herein, a preliminary study was conducted to assess the extent to which GM1 can influence α-Syn release and/or uptake by neighboring cells. MIN9D dopaminergic cells stably expressing human WT α-Syn tagged with GFP were cultured to ˜90% confluency and shifted to serum free media for 48 hours to generate conditioned medium (CM), which was collected, spun at 1000 rpm for 10 minutes and filtered through a sterile […] filter. Normal SH-SY5Y cells (ATCC) were plated in 8 well chamber slides and differentiated in 10 μM retinoic acid for 7 days. Sterile CM or regular medium were used to replace 50% of the medium in each well. The cells were grown in the CM for 24 hours in presence or absence of 100 μM GM1, fixed in 4% paraformaldehyde for 10 minutes, and processed for enhanced visualization of GFP using GFP immunofluorescence.

The test system of test [3] is AAV-A53T α-synuclein rat model. Description: Beclin-1 protein expression in the SN. Conditions: 2 wks after AAV-A53T vector injection; N=8/grp. It counts as in vivo. The source says: The pathological phenotype of various storage disorders comprises increased α-Syn accumulation and aggregation and this increased α-Syn accumulation and aggregation has been linked to lysosomal dyfunction. Also, DA neuron degeneration induced by excess α-Syn in AAV-A53T rats is linked to a progressive decline in autophagic activity and in markers of lysosome function.

For GM1 ganglioside, the “Ser129-phosphorylated α-synuclein staining in the SN, GM1 vs saline” value in test [1] was “less intense cytoplasmic Ser129-phosphorylated α-synuclein staining and fewer/smaller nuclear aggregates; also recorded: more Ser129 phosphorylated α-synuclein staining in saline-treated animals compared to GM1-treated animals”. In addition, the “uptake of GFP-α-Syn into SH-SY5Y cells” value in test [2] was “reduced levels of GFP-α-Syn; also recorded: reduced uptake of GFP-α-Syn”. In test [3], the “SN Beclin-1 protein expression, GM1 vs saline” value is on record as “reversed increased SN Beclin-1 levels; also recorded: significantly increased in saline-treated vs. GM1-treated animals”.
